{"source": "patent EP4608400B1", "about": "“COMPOUND FOR TREATMENT OF PAIN” (Initiator Pharma A/S, priority 2022, dated 2024)", "key": {"[1]": {"experiment": "Phase I crossover study, intradermal capsaicin model: safety evaluation (TEAEs)", "format": "in vivo, human", "description": "(§1) In order to maintain the blind, a double dummy approach was used.\nSafety was assessed through AE reporting, 12-lead ECG, vital signs, physical examinations and clinical laboratory evaluations. Pharmacokinetics was assessed by blood sampling."}, "[2]": {"molecular_target": "T1, dopamine transporter (DAT) (Homo sapiens, UniProt Q01959)", "T1 construct": "expressed in transfected cells", "T1 sequence (Q01959 whole entry)": "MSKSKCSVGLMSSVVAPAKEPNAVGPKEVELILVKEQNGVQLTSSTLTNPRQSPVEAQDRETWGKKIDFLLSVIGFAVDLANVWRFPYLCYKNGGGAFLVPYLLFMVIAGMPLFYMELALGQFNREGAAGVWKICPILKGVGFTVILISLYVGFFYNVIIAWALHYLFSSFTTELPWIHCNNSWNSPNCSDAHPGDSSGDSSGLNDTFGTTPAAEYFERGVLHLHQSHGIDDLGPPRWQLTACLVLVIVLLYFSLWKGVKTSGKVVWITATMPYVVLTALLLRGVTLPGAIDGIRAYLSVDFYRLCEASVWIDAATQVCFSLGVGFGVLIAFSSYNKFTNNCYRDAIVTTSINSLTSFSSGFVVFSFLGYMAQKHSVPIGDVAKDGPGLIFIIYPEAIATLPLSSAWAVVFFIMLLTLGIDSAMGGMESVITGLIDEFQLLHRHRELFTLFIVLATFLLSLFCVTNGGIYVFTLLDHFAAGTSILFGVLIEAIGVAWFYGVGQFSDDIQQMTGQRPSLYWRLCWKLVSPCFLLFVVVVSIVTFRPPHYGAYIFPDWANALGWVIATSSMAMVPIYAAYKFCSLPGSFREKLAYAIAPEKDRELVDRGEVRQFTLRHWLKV", "experiment": "Inhibition of human transporter in stable epithelial cell lines (DAT)", "format": "cell-based", "conditions": "average of two replicates (n=2)", "description": "(§2) Compounds were tested for their ability to inhibit the reuptake of the monoamine neurotransmitters dopamine (DA), noradrenaline (NA), and serotonin (5-HT) in synaptosomes as described in WO 97/16451 (NeuroSearch A/S). In addition, the compounds were tested in human epithelial cells expressing human transporters for 5-HT (SERT), dopamine (DAT), and norepinephrine (NET).\n(§3) The results are the average of two-replicates per experiment (n=2)."}, "[3]": {"experiment": "Phase I ascending single oral dose study: safety and tolerability", "format": "in vivo, human", "description": "Study design. The study was a Phase I, randomised, double-blind, placebo-controlled, ascending single oral dose, safety, tolerability, pharmacokinetic (PK) and pharmacodynamics (PD) study of IP2015 in healthy male subjects.\nEach subject received one oral dose of IP2015 or matched placebo. […] The dose level was to be escalated to a maximum of 0.05 mg in Cohort 2 and a maximum of 0.2 mg in Cohort 3. The doses in the remaining five cohorts were to be determined based on the dose escalation criteria.\nThe randomisation schemes were generated by a statistician using SAS PROC Plan.\nThe doses used in each cohort were as follows: • Cohort 1 - 0.01 mg • Cohort 2 - 0.05 mg • Cohort 3 - 0.2 mg • Cohort 4 - 0.6 mg • Cohort 5 - 1.8 mg • Cohort 6 - 5.4 mg • Cohort 7 - 16.2 mg • Cohort 8 - 10 mg\nEvaluation. The study evaluated the clinical safety data from adverse event (AE) reporting, 12-lead electrocardiogram (ECG), cardiac telemetry, vital signs (standing and supine blood pressure (BP), heart rate (HR), oral temperature and clinical laboratory evaluations (chemistry, haematology, urinalysis) and physical examinations in healthy male subjects."}, "[4]": {"test_system": "intradermal capsaicin model", "experiment": "Phase I crossover study, intradermal capsaicin model: pharmacodynamics", "format": "in vivo, human", "conditions": "for Pain Score of Brush-evoked Allodynia Using an NRS, Adjusted Mean (MMRM) / Subjective Rating of Pain, Adjusted Mean (MMRM): overall, all timepoints, N=24; for Pain Score of Brush-evoked Allodynia Using an NRS, Adjusted Mean (MMRM): placebo 2.0; for Subjective Rating of Pain, Adjusted Mean (MMRM): placebo 17.1", "excerpt": "Participants. The volunteers were males aged 18 to 55 years with a body mass index (BMI) of 18 to 30 kg/m2. They were healthy as determined by a responsible physician, based on a medical evaluation including medical history, physical examination, concomitant medication, vital signs, 12-lead ECG, and clinical laboratory evaluations. The participants must have been in good general health with a skin type compatible with the measures and without significant skin allergies, pigmentary disorders or any active dermatological conditions. […] The participants provided written informed consent, which included compliance with the requirements and restrictions listed in the consent form, including the use of a condom during the trial and for 3 months after their final dose of trial medication, if their partner was a woman of childbearing potential.\nClinical and laboratory data. Prior to and 15, 30, 60, 90 and 120 minutes after administration of capsaicin, measurements of pain, hyperalgesia, allodynia and AF were performed. At 2 hours post-capsaicin injection, subjects completed a quantitative sensory testing (QST) battery at two sites on the volar surface of each forearm. One site was the most recent capsaicin injection site, and the other was at an equivalent point on the opposite forearm. […] There was a minimum washout period of 5 days between treatment periods.\nReconstitution was performed by a Pharmacist at the clinical site prior to dosing.\nas §1\nSubjects were randomised to receive a single administration of a treatment combination during each treatment period. All subjects received each treatment combination once only.\nEvaluation methods: Pharmacodynamics was assessed through pain measurements (response to ID injection of capsaicin, measurement of pain using a visual analogue scale, area and pain score of hyperalgesia, area and pain score of allodynia, and AF) and the ID capsaicin model. Subjects also completed a QST battery at two sites on the volar surface of either forearm. The QST battery included the following tests: thermal detection and pain thresholds, mechanical detection and pain thresholds, stimulus/response functions, wind-up ratio and pressure pain threshold.\nFor measurement of pain, a visual analogue scale (VAS) was used. The VAS consisted of a 100 mm line, with 0 representing \"no pain\" and 100 representing \"worst pain imaginable\". Subjects were asked to mark the VAS using a single vertical stroke at the point they considered to appropriately reflect their level of pain from the injection of capsaicin (not general pain). A new VAS was provided for each time point and subjects were not allowed to see their previous VAS responses. The VAS was scored by measuring from the left-hand end of the scale to the point where the subject had marked the line, and the distance in mm was recorded.\nResponse to pain was also assessed by a numeric rating scale (NRS). For example, by using an 11-point numeric rating scale ranging from 0 (\"no pain\") to 10 (\"worst possible pain\") and asking the subject to rate their pain. A NRS scale of 0 to 100 was also used in some assesments.\nThe thermal tests were performed using a thermode probe (Medoc). Cold and warm detection thresholds were measured first, then cold pain and heat pain thresholds were determined. The mean threshold temperature of 3 consecutive measurements was calculated. All thresholds were obtained with ramped stimuli (1°C/sec) that were terminated when the subject pressed a button. For thermal detection thresholds the ramp back to baseline was 1°C/sec, while for thermal pain thresholds this ramp was chosen at maximum device capacity resulting in approximately a nominal 5°C/sec.\nThe mechanical detection threshold was measured with a standardised set of modified von Frey nylons that exerted forces upon bending between 0.25 and 512 mN graded by a factor of 2 (1 to 2 seconds contact time). […]"}, "[5]": {"molecular_target": "T2, norepinephrine transporter (NET) (Homo sapiens, UniProt P23975)", "T2 construct": "expressed in transfected cells", "T2 sequence (P23975 whole entry)": "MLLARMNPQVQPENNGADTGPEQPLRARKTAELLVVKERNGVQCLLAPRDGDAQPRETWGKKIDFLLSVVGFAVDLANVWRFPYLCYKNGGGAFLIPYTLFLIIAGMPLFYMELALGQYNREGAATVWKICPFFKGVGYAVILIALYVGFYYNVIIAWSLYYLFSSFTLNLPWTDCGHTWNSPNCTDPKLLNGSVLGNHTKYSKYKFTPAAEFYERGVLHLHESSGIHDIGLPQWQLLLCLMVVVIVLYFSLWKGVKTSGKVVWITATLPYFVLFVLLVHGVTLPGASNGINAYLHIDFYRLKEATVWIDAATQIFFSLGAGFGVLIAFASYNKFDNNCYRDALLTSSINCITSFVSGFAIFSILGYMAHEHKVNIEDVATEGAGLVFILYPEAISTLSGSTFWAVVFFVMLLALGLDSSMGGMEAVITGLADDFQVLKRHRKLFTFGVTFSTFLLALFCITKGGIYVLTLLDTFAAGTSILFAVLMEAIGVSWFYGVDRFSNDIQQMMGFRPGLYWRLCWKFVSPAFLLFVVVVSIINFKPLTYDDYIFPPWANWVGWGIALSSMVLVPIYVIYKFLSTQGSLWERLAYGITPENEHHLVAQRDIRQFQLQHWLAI", "experiment": "Inhibition of human transporter in stable epithelial cell lines (NET)", "format": "cell-based", "conditions": "average of two replicates (n=2)", "description": "as §2, §3"}}, "note": "pIC50: −log10 of the molar value."}
{"smiles": "COc1cc2ccc(O[C@@H]3C[C@H]4CC[C@@H](C3)N4)cc2oc1=O", "note": "[IP2015, exo-7-[(8-azabicyclo[3.2.1]octan-3-yl)oxy]-3-methoxy-chromen-2-one]", "values": [{"measurement": "severity of all TEAEs", "setting": "[1]; 5 mg IP2015 and 10 mg IP2015", "result": "mild"}, {"measurement": "incidence of TEAEs (share of subjects)", "setting": "[1]; 5 mg IP2015 single oral dose", "result": 29.2, "unit": "%"}, {"measurement": "number of TEAEs reported", "setting": "[1]; 5 mg IP2015 single oral dose", "result": 10, "unit": "events"}, {"measurement": "subjects reporting TEAEs", "setting": "[1]; 5 mg IP2015 single oral dose", "result": 7, "unit": "subjects"}, {"measurement": "incidence of TEAEs (share of subjects)", "setting": "[1]; 10 mg IP2015 single oral dose", "result": 54.2, "unit": "%"}, {"measurement": "number of TEAEs reported", "setting": "[1]; 10 mg IP2015 single oral dose", "result": 19, "unit": "events"}, {"measurement": "subjects reporting TEAEs", "setting": "[1]; 10 mg IP2015 single oral dose", "result": 13, "unit": "subjects"}, {"measurement": "pIC50", "setting": "[2]", "result": 8.84}, {"measurement": "incidence of TEAEs", "setting": "[3]; 0.01 mg to 10 mg dose range", "result": "relatively low"}, {"measurement": "mean ECG parameters", "setting": "[3]; 0.01 mg to 10 mg dose range", "result": "no significant treatment- or dose-related trends"}, {"measurement": "vital sign values, mean or individual subject", "setting": "[3]; 0.01 mg to 10 mg dose range", "result": "no significant treatment- or dose-related trends"}, {"measurement": "incidence of side effects compared to the 0.01 mg to 10 mg dose range", "setting": "[3]; 16.2 mg", "result": "increased"}, {"measurement": "subjects with sustained tachycardia for several hours", "setting": "[3]; 16.2 mg", "result": 2, "unit": "subjects"}, {"measurement": "subjects reporting at least one TEAE", "setting": "[3]; 16.2 mg dose group (all subjects of the group)", "result": 4, "unit": "subjects"}, {"measurement": "standing pulse rate", "setting": "[3]; 16.2 mg, 2, 3, 4, 6, 8, 10 and 12 hours postdose", "result": "increases from baseline"}, {"measurement": "supine pulse rate", "setting": "[3]; 16.2 mg, 6, 8 and 10 hours postdose", "result": "increases from baseline"}, {"measurement": "heart rate (ECG)", "setting": "[3]; 16.2 mg, 8 and 12 hours postdose", "result": "increases from baseline"}, {"measurement": "subjects experiencing TEAEs", "setting": "[3]; of the 40 subjects who received IP2015, all dose groups", "result": 16, "unit": "subjects"}, {"measurement": "total TEAEs", "setting": "[3]; the 40 subjects who received IP2015, all dose groups", "result": 32, "unit": "TEAEs"}, {"measurement": "area of brush-evoked allodynia compared to placebo", "setting": "[4]; 5 mg IP2015, 120 min after capsaicin injection, P=0.049", "result": "significantly lowered"}, {"measurement": "Pain Score of Brush-evoked Allodynia Using an NRS, Adjusted Mean (MMRM)", "setting": "[4]; 5 mg IP2015", "result": 1.8}, {"measurement": "Subjective Rating of Pain, Adjusted Mean (MMRM)", "setting": "[4]; 5 mg IP2015 single oral dose", "result": 15.6, "unit": "mm"}, {"measurement": "adjusted mean pain score of hyperalgesia compared to placebo", "setting": "[4]; 5 mg and 10 mg IP2015, 300 mg pregabalin, all post-capsaicin injection timepoints", "result": "lower"}, {"measurement": "average decrease in hyperalgesic area across all timepoints compared to placebo", "setting": "[4]; 10 mg IP2015", "result": 4, "unit": "cm^2"}, {"measurement": "decrease of subjective rating of pain compared to placebo", "setting": "[4]; 10 mg IP2015, 15 min post capsaicin", "result": 7.2, "unit": "mm"}, {"measurement": "decrease of subjective rating of pain compared to placebo", "setting": "[4]; 10 mg IP2015, 30 min post capsaicin", "result": 8.3, "unit": "mm"}, {"measurement": "decrease of subjective rating of pain compared to placebo", "setting": "[4]; 10 mg IP2015, 60 min post capsaicin", "result": 7.5, "unit": "mm"}, {"measurement": "Pain Score of Brush-evoked Allodynia Using an NRS, Adjusted Mean (MMRM)", "setting": "[4]; 10 mg IP2015", "result": 1.6}, {"measurement": "overall increase in warm detection threshold between test and control areas (QST)", "setting": "[4]; 10 mg IP2015, p = 0.013, post-hoc analysis", "result": "significant"}, {"measurement": "pressure pain threshold (QST)", "setting": "[4]; 10 mg IP2015, post-hoc analysis", "result": "best effects"}, {"measurement": "Subjective Rating of Pain, Adjusted Mean (MMRM)", "setting": "[4]; 10 mg IP2015 single oral dose", "result": 11.7, "unit": "mm"}, {"measurement": "thermal sensory limen warm test (QST)", "setting": "[4]; IP2015 versus pregabalin, post-hoc analysis", "result": "improved effects compared to pregabalin"}, {"measurement": "pIC50", "setting": "[5]", "result": 7.02}]}
